From ChEMBL document CHEMBL5678818, “Discovery of potent SOS1 inhibitors that block RAS activation via disruption of the RAS-SOS1 interaction” (Proc Natl Acad Sci U S A, 2019)

Tests used:
[1] = target: MAP kinase-interacting serine/threonine-protein kinase 2 (Homo sapiens) (UniProt Q9HBH9); test: Inhibition of MKNK2 (unknown origin) assessed as residual activity at 100 nM by KINOMEscan analysis relative to control
[2] = target: T1, Ephrin type-B receptor 2 (Homo sapiens) (UniProt P29323); test: Inhibition of EPHB2 (unknown origin) assessed as residual activity at 100 nM by KINOMEscan analysis relative to control
T1 sequence (whole entry): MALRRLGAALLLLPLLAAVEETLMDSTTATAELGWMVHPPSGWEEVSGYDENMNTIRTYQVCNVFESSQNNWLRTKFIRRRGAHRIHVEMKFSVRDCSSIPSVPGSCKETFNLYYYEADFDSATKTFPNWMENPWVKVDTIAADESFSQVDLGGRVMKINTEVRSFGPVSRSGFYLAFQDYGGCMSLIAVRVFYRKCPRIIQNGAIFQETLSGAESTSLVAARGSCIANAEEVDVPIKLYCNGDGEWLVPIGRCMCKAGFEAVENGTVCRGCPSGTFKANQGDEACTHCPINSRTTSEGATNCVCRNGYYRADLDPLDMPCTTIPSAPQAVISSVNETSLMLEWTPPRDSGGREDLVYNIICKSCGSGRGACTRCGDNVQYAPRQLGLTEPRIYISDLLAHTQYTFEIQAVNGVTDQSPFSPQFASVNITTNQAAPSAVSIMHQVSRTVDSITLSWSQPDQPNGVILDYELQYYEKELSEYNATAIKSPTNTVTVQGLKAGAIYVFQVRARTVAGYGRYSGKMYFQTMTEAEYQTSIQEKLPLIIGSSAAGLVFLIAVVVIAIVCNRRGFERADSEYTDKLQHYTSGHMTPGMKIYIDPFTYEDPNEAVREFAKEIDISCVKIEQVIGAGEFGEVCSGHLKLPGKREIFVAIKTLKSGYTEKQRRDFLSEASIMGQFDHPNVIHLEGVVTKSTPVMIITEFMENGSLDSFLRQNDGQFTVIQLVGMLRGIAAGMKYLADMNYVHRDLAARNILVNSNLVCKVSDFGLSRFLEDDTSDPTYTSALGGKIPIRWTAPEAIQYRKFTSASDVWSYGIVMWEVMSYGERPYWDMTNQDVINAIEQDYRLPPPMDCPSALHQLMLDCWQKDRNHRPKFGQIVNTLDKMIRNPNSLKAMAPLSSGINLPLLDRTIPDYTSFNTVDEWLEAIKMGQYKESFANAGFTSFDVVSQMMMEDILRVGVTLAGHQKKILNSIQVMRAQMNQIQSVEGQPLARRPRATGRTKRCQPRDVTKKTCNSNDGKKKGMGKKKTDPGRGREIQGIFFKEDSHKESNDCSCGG

[3] = system: Hepatocyte growth factor receptor (Homo sapiens), P08581 [M1250T]; test: Inhibition of MET M1250T mutant (unknown origin) assessed as residual activity at 100 nM by KINOMEscan analysis relative to control
[4] = system: Epidermal growth factor receptor (Homo sapiens), P00533 [L858R,T790M]; test: Inhibition of EGFR L858R/T790M mutant (unknown origin) assessed as residual activity at 100 nM by KINOMEscan analysis relative to control
[5] = system: Tyrosine-protein kinase ABL1 (Homo sapiens), P00519 [F317L]; test: Inhibition of nonphosphorylated ABL1 F317L mutant (unknown origin) assessed as residual activity at 100 nM by KINOMEscan analysis relative to control
[6] = target: Serine/threonine-protein kinase 38 (Homo sapiens) (UniProt Q15208); test: Inhibition of NDR1 (unknown origin) assessed as residual activity at 100 nM by KINOMEscan analysis relative to control
[7] = target: STE20/SPS1-related proline-alanine-rich protein kinase (Homo sapiens) (UniProt Q9UEW8); test: Inhibition of STK39 (unknown origin) assessed as residual activity at 100 nM by KINOMEscan analysis relative to control
[8] = target: Insulin-like growth factor 1 receptor (Homo sapiens) (UniProt P08069); test: Inhibition of IGF1R (unknown origin) assessed as residual activity at 100 nM by KINOMEscan analysis relative to control
[9] = target: Serine/threonine-protein kinase 35 (Homo sapiens) (UniProt Q8TDR2); test: Inhibition of STK35 (unknown origin) assessed as residual activity at 100 nM by KINOMEscan analysis relative to control
[10] = system: Fibroblast growth factor receptor 3 (Homo sapiens), P22607 [G697C]; test: Inhibition of FGFR3 G697C mutant (unknown origin) assessed as residual activity at 100 nM by KINOMEscan analysis relative to control
Homo sapiens = species: Homo sapiens; test: Stabilization of N-terminal His10-tagged recombinant human KRAS G12C/C118S mutant (1 to 169 residues) expressed in Escherichia coli assessed as change in melting temperature at 100 uM with heating from 25 to 85 degreeC by thermal shift assay
[11] = target: T2, Mitogen-activated protein kinase kinase kinase 3 (Homo sapiens) (UniProt Q99759); test: Inhibition of MAP3K3 (unknown origin) assessed as residual activity at 100 nM by KINOMEscan analysis relative to control
T2 sequence (whole entry): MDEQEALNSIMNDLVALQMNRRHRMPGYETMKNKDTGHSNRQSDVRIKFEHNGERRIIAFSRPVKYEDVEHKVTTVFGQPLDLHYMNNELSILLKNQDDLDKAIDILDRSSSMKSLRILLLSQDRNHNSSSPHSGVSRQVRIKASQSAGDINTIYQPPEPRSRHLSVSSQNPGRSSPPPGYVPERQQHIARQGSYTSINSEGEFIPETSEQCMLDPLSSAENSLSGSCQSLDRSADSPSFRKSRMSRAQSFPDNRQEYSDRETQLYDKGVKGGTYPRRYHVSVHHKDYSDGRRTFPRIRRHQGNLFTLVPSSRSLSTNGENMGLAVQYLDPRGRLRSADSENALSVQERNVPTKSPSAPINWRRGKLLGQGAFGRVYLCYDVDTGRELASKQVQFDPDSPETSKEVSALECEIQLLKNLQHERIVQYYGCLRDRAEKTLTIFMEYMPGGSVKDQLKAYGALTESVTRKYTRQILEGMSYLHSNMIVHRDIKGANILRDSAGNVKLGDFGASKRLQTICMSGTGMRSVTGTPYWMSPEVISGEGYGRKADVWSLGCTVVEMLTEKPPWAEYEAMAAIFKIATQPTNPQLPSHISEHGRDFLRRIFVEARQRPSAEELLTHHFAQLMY

[12] = target: Serine/threonine-protein kinase 32C (Homo sapiens) (UniProt Q86UX6); test: Inhibition of YANK3 (unknown origin) assessed as residual activity at 100 nM by KINOMEscan analysis relative to control
[13] = target: Serine/threonine-protein kinase SIK2 (Homo sapiens) (UniProt Q9H0K1); test: Inhibition of SIK2 (unknown origin) assessed as residual activity at 100 nM by KINOMEscan analysis relative to control
Sequence of Serine/threonine-protein kinase SIK2 (Homo sapiens) (Q9H0K1 whole entry, looked up): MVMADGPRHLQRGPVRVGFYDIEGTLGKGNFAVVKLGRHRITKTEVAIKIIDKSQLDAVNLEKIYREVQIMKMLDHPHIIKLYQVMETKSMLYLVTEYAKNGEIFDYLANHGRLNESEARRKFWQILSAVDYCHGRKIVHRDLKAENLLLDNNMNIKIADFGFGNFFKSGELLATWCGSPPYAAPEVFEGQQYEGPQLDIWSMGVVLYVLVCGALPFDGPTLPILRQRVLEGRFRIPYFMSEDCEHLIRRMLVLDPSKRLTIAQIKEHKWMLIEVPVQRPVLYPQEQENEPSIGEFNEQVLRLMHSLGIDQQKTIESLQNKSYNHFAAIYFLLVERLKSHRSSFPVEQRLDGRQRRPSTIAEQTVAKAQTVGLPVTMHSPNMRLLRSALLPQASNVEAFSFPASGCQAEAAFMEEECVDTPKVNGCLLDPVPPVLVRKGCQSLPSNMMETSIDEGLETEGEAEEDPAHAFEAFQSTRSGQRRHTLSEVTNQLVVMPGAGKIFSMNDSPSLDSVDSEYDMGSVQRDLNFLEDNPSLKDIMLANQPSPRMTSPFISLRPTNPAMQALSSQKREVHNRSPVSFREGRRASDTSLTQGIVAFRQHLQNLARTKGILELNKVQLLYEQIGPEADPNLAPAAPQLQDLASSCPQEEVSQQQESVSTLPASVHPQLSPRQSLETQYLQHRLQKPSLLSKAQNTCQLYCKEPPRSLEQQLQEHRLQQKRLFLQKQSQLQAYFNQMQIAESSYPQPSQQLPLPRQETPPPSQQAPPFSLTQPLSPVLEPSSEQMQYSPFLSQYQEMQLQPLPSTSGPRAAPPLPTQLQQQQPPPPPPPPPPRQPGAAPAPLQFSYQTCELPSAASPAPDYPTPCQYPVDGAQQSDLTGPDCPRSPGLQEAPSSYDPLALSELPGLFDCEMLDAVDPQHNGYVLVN

Sequence of Tyrosine-protein kinase ABL1 (Homo sapiens), P00519 [F317L] (P00519 whole entry F317L): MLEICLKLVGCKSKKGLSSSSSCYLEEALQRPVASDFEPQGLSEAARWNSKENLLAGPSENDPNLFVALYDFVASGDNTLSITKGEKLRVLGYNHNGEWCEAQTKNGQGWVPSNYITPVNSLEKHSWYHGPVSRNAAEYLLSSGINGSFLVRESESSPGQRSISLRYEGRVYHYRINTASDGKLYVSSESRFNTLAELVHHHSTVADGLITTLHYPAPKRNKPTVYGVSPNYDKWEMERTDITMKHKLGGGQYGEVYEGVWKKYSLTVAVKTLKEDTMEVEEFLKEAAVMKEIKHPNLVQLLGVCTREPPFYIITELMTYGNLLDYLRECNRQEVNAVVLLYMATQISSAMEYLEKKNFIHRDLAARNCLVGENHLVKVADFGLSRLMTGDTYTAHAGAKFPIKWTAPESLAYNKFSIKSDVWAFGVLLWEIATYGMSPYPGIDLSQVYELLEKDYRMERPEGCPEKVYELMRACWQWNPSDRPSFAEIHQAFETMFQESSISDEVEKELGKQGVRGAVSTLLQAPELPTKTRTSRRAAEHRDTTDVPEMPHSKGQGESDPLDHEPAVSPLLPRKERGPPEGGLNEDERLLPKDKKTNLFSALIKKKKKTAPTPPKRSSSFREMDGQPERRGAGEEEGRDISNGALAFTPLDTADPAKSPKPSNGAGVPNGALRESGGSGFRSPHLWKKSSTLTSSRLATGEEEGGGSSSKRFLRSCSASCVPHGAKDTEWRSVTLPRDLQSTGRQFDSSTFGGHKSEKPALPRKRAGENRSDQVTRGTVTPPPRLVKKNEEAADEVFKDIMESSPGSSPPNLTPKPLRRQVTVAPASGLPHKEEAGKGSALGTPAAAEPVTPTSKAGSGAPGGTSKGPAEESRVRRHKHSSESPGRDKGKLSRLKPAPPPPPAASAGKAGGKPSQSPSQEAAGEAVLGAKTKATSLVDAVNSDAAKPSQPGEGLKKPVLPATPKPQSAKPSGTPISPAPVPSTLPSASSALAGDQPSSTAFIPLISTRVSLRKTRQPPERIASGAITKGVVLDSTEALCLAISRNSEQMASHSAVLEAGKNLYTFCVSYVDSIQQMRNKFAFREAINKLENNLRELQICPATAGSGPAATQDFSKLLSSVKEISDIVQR
Sequence of Serine/threonine-protein kinase 38 (Homo sapiens) (Q15208 2-465 limits assumed): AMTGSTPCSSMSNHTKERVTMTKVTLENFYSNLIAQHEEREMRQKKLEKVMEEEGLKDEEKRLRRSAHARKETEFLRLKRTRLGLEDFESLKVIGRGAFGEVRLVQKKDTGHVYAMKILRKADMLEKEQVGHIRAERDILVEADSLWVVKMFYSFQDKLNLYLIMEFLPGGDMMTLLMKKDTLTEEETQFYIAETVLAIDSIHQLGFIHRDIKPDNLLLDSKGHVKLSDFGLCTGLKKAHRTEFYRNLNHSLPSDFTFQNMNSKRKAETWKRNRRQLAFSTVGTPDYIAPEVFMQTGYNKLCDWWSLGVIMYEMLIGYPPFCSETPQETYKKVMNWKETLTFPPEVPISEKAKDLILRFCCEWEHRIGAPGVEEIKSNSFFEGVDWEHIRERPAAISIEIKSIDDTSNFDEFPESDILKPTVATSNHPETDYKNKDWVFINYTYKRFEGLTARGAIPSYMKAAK
Sequence of Serine/threonine-protein kinase 32C (Homo sapiens) (Q86UX6 whole entry): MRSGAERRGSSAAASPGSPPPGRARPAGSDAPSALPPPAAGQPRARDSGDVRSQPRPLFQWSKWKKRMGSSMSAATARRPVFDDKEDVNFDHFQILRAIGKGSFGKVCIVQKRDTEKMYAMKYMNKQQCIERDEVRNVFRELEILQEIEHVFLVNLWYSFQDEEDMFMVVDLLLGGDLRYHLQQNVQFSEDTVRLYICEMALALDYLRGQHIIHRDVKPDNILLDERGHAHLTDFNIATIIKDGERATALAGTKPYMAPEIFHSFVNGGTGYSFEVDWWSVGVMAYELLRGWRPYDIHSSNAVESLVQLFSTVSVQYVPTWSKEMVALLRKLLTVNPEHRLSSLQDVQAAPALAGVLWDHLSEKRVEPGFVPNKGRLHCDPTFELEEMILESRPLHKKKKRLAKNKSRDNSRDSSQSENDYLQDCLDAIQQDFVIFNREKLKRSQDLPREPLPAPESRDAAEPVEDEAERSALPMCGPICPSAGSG
Sequence of Fibroblast growth factor receptor 3 (Homo sapiens), P22607 [G697C] (P22607 whole entry G697C, the tested form may be a part): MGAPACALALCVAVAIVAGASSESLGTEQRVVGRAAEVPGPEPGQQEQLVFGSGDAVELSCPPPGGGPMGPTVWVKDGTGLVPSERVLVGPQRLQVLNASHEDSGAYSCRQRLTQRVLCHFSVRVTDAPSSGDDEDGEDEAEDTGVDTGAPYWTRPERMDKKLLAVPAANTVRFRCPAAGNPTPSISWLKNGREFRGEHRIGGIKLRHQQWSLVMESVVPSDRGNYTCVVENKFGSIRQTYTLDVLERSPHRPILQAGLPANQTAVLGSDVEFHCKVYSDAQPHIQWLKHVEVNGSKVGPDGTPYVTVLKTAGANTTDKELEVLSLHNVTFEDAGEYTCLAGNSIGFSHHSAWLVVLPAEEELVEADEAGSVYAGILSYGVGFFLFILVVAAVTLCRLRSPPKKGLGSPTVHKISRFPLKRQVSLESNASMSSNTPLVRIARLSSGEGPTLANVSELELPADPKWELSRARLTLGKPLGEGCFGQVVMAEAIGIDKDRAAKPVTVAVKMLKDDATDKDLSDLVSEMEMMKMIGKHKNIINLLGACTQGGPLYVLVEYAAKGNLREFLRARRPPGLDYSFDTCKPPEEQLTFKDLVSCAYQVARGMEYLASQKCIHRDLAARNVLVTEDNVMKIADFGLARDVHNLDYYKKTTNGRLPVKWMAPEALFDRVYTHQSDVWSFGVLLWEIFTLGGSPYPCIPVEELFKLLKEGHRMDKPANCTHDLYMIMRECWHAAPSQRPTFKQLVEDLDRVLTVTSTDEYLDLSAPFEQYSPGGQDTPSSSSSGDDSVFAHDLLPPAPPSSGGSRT
Sequence of MAP kinase-interacting serine/threonine-protein kinase 2 (Homo sapiens) (Q9HBH9 whole entry, looked up): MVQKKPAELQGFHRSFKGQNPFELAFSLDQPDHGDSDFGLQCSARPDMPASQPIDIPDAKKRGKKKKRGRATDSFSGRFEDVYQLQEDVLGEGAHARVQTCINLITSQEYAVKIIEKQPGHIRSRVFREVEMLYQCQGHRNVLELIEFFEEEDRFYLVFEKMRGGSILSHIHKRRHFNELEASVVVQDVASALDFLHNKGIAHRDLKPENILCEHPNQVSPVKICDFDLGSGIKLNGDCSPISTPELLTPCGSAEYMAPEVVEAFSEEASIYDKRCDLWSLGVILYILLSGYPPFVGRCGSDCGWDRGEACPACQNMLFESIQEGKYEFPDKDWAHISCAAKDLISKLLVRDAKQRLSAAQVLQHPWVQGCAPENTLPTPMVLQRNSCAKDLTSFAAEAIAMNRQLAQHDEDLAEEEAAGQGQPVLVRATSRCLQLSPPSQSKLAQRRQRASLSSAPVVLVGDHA
Sequence of Serine/threonine-protein kinase 35 (Homo sapiens) (Q8TDR2 whole entry): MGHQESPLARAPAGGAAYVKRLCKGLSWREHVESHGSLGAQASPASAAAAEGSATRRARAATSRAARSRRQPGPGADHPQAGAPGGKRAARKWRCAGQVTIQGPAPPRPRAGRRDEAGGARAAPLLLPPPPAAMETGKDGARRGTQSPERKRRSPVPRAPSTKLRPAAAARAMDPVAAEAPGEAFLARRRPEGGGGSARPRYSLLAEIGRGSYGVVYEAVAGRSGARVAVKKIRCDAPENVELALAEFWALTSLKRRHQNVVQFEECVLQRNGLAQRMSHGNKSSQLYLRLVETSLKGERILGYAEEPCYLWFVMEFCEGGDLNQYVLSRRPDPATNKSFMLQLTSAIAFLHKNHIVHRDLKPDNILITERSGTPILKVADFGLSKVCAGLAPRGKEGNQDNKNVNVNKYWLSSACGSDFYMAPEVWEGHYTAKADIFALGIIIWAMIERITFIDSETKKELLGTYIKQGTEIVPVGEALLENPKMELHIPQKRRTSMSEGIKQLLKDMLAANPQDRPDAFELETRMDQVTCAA

COc1cc2ncnc(N[C@H](C)c3cccc4ccccc34)c2cc1OC
Activity [1]: 89%
Activity [2]: 85%
Activity [3]: 95%
Activity [4]: 85%
Activity [5]: 100%
Activity [6]: 80%
Activity [7]: 93%
Activity [8]: 82%
Activity [9]: 98%
Activity [10]: 66%
ΔTm (Homo sapiens): -1.9 °C
Activity [11]: 90%
Activity [12]: 100%
Activity [13]: 91%
